In one experiment the target is A2A adenosine receptor (Homo sapiens (Human), UniProt P29274). The experiment can be described thus: Adenosine receptor binding selectivity A1 > A2A. Conditions: ratio of Ki values. The protocol:
(§1) As used herein, the term “selective adenosine A1 agonist” means an A1 agonist that has a high affinity to the A1 receptor while simultaneously having a low affinity for the A2 and A3 adenosine receptors.
(§2) Membranes for radioligand binding experiments are prepared from fresh or frozen cells as described in Klotz et al., Naunyn-Schmiedeberg's Arch. […] The cell suspension is then homogenized in ice-cold hypotonic buffer (5 mM Tris/HCl, 2 mM EDTA, pH 7.4) and the homogenate is spun for 10 minutes (4° C.) at 1,000 g.
(§3) Nonspecific binding is determined in the presence of 100 μM R-PM and 1 mM theophylline, respectively. For details see Klotz et al., Naunyn-Schmiedeberg's Arch.

Experiment [1] has as its target T1, A3 adenosine receptor (Homo sapiens (Human), UniProt P0DMS8). The experiment can be described thus: Adenosine receptor binding selectivity A1 > A3. The settings on record: ratio of Ki values. How it is done:
as §1, §2, §3

Experiment [2] addresses T1, A3 adenosine receptor. The experiment can be described thus: Inhibition of forskolin-stimulated adenylyl cyclase activity via A3 receptor. In kind it is biochemical. The settings on record: membranes of CHO cells stably transfected with human A3 receptor. How it is done:
(§4) The A1 and A3 receptor-mediated inhibition of forskolin-stimulated adenylyl cyclase activity was tested in membranes prepared from CHO cells stably transfected with the human A1 and A3 adenosine receptors. The A2a and A2b receptor-mediated stimulation of basal cyclase activity was tested in membranes prepared from CHO cells stably transfected with the human A2a and […] adenosine receptors
(§5) Adenylyl Cyclase Inhibition Via Human Adenosine A1 and A3 Receptors

Experiment [3] addresses human A1 adenosine receptor (Homo sapiens (Human), UniProt P30542). Nature of the experiment: Inhibition of forskolin-stimulated adenylyl cyclase activity via A1 receptor. The format is biochemical. Conditions: membranes of CHO cells stably transfected with human A1 receptor. How it is done:
as §4, §5

Experiment [4] in a line: Clinical study: single topical ocular dose, intraocular pressure in adults with OHT or POAG. The settings on record: for IOP difference from the placebo response: 2 hours postdose. The format is in vivo, human. An excerpt: The clinical study described herein is a multi-center, randomized, double-blind, placebo-controlled, dose-escalation study of a single topical ocular application of the study drug (i.e., Compound A or placebo) to the one study eye of adults with OHT or POAG. The “study eye” was defined as the eye with the higher mean IOP, recorded between 7:00 and 8:00 AM on the day prior to dosing (Day 0).
The adult subjects were sequentially assigned to 1 of 7 treatment groups.
Masked-intraocular pressures were determined in duplicate with a Goldmann tonometer following traditional corneal anesthesia. […] Subsequent bilateral external eye examinations and masked-IOP determinations were performed at 9:00 AM, 10:00 AM, 12:00 noon, and 2:00 PM (each ±5 minutes), corresponding to 1, 2, 4, and 6 hours post study drug application. In addition in the 700 mcg cohort an IOP determination was performed at 6:00 PM (18:00), corresponding to 10 hours post study drug application.
The study drug was only administered to one eye per subject (the study eye). Dosages ranged from 2.5 micrograms to 350 micrograms per 50 microliter drop, per respective treatment group. A board-certified ophthalmologist (or comparably trained designee) administered the study drug. Randomized enrollment of subjects into each successive treatment groups was predicated upon the review and approval of the safety data from the completed treatment groups by the Safety Research Committee, consisting of three qualified physicians (i.e., an internist, cardiologist, and ophthalmologist).

As usually defined, the EC50 is the concentration at which the effect is half-maximal. Read a low EC50 as greater potency.

SMILES strings stand for the structures.

Chain of A2A adenosine receptor (P29274 whole entry): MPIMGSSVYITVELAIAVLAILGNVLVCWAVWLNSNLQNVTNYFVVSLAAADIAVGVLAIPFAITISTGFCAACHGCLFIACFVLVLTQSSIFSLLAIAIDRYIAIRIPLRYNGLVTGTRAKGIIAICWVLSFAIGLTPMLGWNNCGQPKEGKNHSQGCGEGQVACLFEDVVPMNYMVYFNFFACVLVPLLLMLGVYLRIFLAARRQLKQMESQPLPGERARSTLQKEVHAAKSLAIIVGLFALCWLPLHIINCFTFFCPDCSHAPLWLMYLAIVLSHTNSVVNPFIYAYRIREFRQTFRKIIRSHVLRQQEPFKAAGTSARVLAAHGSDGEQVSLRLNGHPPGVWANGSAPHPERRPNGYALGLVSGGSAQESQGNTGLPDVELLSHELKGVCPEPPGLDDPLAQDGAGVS
T1 sequence (P0DMS8 whole entry): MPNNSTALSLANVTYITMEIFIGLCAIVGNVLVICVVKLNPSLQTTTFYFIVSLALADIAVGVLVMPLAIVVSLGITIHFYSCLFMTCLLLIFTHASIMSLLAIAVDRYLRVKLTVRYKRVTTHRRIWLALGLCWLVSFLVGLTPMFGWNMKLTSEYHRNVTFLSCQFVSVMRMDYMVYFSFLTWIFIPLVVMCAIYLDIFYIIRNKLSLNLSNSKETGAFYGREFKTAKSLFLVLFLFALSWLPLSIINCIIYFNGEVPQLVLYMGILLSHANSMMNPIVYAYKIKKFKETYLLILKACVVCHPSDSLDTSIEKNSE
Chain of human A1 adenosine receptor (P30542 whole entry): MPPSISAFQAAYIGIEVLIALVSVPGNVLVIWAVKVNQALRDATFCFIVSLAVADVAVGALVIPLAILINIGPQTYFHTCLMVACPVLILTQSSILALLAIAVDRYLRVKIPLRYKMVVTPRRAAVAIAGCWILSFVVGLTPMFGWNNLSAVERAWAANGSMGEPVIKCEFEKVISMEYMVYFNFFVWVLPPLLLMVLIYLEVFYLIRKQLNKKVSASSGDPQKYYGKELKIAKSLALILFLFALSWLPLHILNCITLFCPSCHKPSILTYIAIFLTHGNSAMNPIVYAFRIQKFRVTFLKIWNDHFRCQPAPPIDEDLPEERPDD

For the compound `O=[N+]([O-])OC[C@H]1O[C@@H](n2cnc3c(NC4CCOC4)ncnc32)[C@H](O)[C@@H]1O` (stereo partly drawn) [Compound D, ((2R,3S,4R,5R)-3,4-dihydroxy-5-(6-(tetrahydrofuran-3-ylamino)-9H-purin-9-yl)tetrahydrofuran-2-yl)methyl nitrate], the “A1 > A2A SELECTIVITY [KiA2(nm)/KiA1(nm)]” value on A2A adenosine receptor is listed as more than 9434. At A3 adenosine receptor [1], the “A1 > A3 SELECTIVITY [KiA3(nm)/KiA1(nm)]” value is 202.

In the case of `O=[N+]([O-])OC[C@H]1O[C@@H](n2cnc3c(NC4CC5CCC4C5)ncnc32)[C@H](O)[C@@H]1O` (stereo partly drawn) [Compound F, ((2R,3S,4R,5R)-5-(6-(bicycle-[2.2.1]-heptan-2-ylamino)-9H-purin-9-yl)-3,4-dihydroxytetrahydrofuran-2-yl)methyl nitrate], the “A1 > A2A SELECTIVITY [KiA2(nm)/KiA1(nm)]” value on A2A adenosine receptor was found to be 3945. Moreover, the “A1 > A3 SELECTIVITY [KiA3(nm)/KiA1(nm)]” value at A3 adenosine receptor [1] was determined as 260.

Turning to `O=[N+]([O-])OC[C@H]1O[C@@H](n2cnc3c(NC4CCCCC4)ncnc32)[C@H](O)[C@@H]1O` [Compound E, ((2R,3S,4R,5R)-5-(6-(cyclohexylamino)-9H-purin-9-yl)-3,4-dihydroxytetrahydrofuran-2-yl)methyl nitrate], the half-maximal effective concentration (EC50) at A3 adenosine receptor [2] is more than 100000 nM; in experiment [3], 29 nM. At A2A adenosine receptor, the “A1 > A2A SELECTIVITY [KiA2(nm)/KiA1(nm)]” value is given as 878. The “A1 > A3 SELECTIVITY [KiA3(nm)/KiA1(nm)]” value at A3 adenosine receptor [1] came out at 1098.

As to `O=S(=O)([O-])OC[C@H]1O[C@@H](n2cnc3c(NC4CCCC4)ncnc32)[C@H](O)[C@@H]1O.[Na+]` [Compound C, sodium ((2R,3S,4R,5R)-5-(6-(cyclopentylamino)-9H-purin-9-yl)-3,4-dihydroxytetrahydrofuran-2-yl)methyl sulfate], the “A1 > A2A SELECTIVITY [KiA2(nm)/KiA1(nm)]” value on A2A adenosine receptor turned out to be 2250. Besides, on A3 adenosine receptor [1], the “A1 > A3 SELECTIVITY [KiA3(nm)/KiA1(nm)]” value was determined as 251.

With `O=[N+]([O-])OC[C@H]1O[C@@H](n2cnc3c(NC4CCCC4)ncnc32)[C@H](O)[C@@H]1O` [Compound A, ((2R,3S,4R,5R)-5-(6-(cyclopentylamino)-9H-purin-9-yl)-3,4-dihydroxytetrahydrofuran-2-yl)methyl nitrate], the “IOP difference from the placebo response” value in experiment [4] (350 mcg treatment group) and in experiment [4] (700 mcg treatment group) was “Statistically significant differences from the placebo response” in each case. Also, in experiment [4] (350 mcg treatment group, entire observation period), the “duration of the decrease in IOP” value was approximately 6 h. Also, the “dose group with % of subjects achieving greatest IOP decrement (responder analysis)” value in experiment [4] (across 7 dose groups) was 350 µg. The “dose with largest mean and median decreases in IOP” value in experiment [4] (across 7 dose groups 2.5-700 mcg) stood at 350 µg. In addition, the “decrement in IOP from the Day 1 pre-dose baseline” value in experiment [4] (single topical ocular dose 2.5-700 mcg, study eye, OHT or POAG) is “Dose-related decrement in IOP”. Moreover, the “responder analysis: subjects with categorical mean IOP decreases from baseline of ≧10%, ≧15% or ≧20%” value in experiment [4] (throughout the observation period (~6 hrs)) is recorded as “showed a dose-response”. Moreover, in experiment [4] (topical ocular doses, human subjects), the “time post-dose of largest difference in IOP between drug-treated and placebo-treated eyes” value was “approximately 2 hours”. The compound further gave a concentration giving a half-maximal response (EC50) in experiment [3] of 17 nM.

On to `O=S(=O)([O-])OC[C@H]1O[C@@H](n2cnc3c(NC4CCCCC4)nc(Cl)nc32)[C@H](O)[C@@H]1O.[Na+]` [Compound G, sodium ((2R,3S,4R,5R)-5-(2-chloro-6-(cyclohexylamino)-9H-purin-9-yl)-3,4-dihydroxytetrahydrofuran-2-yl)methyl sulfate], for which the results for the concentration for a half-maximal effect (EC50) (at A3 adenosine receptor [2]; in experiment [3]) were more than 100000 nM and 19 nM, respectively. Moreover, at A2A adenosine receptor, the “A1 > A2A SELECTIVITY [KiA2(nm)/KiA1(nm)]” value stood at 200. For the same compound, the “A1 > A3 SELECTIVITY [KiA3(nm)/KiA1(nm)]” value on A3 adenosine receptor [1] stood at 130.
